In patent publication US6632834B2, “Compositions and methods for treating conditions responsive to estrogen” (Pfizer Inc., priority 2000, dated 2003):

Key:
[1] = test system: MDA-MB-231 cells; test: Inhibition of in vitro human breast tumor cell growth (direct cell counts), ER-negative cells; type: cell-based; conditions: MDA-MB-231 (ER-negative), 6 days incubation
Method: (§1) The in vitro antiproliferative effects of (−)-cis-6-phenyl-5-[4-(2-pyrrolidin-1-yl-ethoxy)-phenyl]-5,6,7,8-tetrahydro-naphthalene-2-ol (PPTN) were tested using two types of human breast cancer cell lines: first, MCF-7 cells, which contain ER as well as progesterone receptors (PgR), and second, MDA-MB-231 cells, which lack ER and PgR, and enable the determination of an effect that is independent of the ER mechanism. The effect of PPTN on the growth of these different cell lines was determined by incubation of the cells with various compound concentrations for 6 days.
(§2) The antiproliferative effects were then determined by direct cell counts. PPTN inhibited the growth of the ER-positive cell line MCF-7.

[2] = test system: MCF-7 cells; test: Inhibition of in vitro human breast tumor cell growth (direct cell counts), ER-positive cells; type: cell-based; conditions: MCF-7 (ER-positive), 6 days incubation
Method: as §1, §2

## Oc1ccc2c(c1)CC[C@H](c1ccccc1)[C@@H]2c1ccc(OCCN2CCCC2)cc1 [PPTN, (−)-cis-6-phenyl-5-[4-(2-pyrrolidin-1-yl-ethoxy)-phenyl]-5,6,7,8-tetrahydro-naphthalene-2-ol]
[1]
  inhibition of cell proliferation: did not inhibit cell proliferation
[2]
  IC50 for growth inhibition: 3 to 5×10^−11 M
